Assay results: patent US12241049B2, “Multi-compartment device containing human three-dimensional (3D) microtissues for toxicity testing” (BROWN UNIVERSITY, priority 2019, dated 2025)

Tested on: HepaRG 3D microtissues
Conditions: 10-day old HepaRG 3D microtissues, 1.2 mM CPA
Source text: FIG. 2B is a chart showing the change in HepaRG spheroid volume as an indicator of cytotoxicity induced by cyclophosphamide (CPA) with or without 1-aminobenzotriazol (ABT). The inventors analyzed the data with two-way ANOVA with Tukey's LSD means. P=0.05. […] FIG. 2C is a picture showing hematoxylin and eosin (H&E) stained toroid-shaped HepaRG microtissues. Scale bars=100 μm.

Compound: O=P1(N(CCCl)CCCl)NCCCO1 (stereo not shown) [CPA, cyclophosphamide]
- cytotoxicity: cell death and spheroid volume: caused cell death and a significant reduction in spheroid volume
